In US20260007601A1, “IONIZABLE CATIONIC LIPID COMPOUND AND COMPOSITION FOR DELIVERING NUCLEIC ACID AND USE THEREOF” (BEIJING YOUCAREKECHUANG PHARMACEUTICAL TECHNOLOGY CO., LTD., priority 2023, published 2026):

Columns and labels:
[1] = Particle size and polydispersity index (PDI) of nanolipid particles, dynamic light scattering; assay type: physicochemical; details: LNP formulation prepared from the named cationic lipid, 25° C
Procedure: The particle size and polydispersity index (PDI) were determined by dynamic light scattering method using a Malvern laser particle size analyzer. 10 μL of liposome solution was diluted to 1 mL with RNase-free deionized water and added to a sample pool. Each sample was measured three times. The measurement conditions were: 90° scattering angle, 25° C.

[2] = Encapsulation rate, drug loading concentration and total RNA concentration detection (RiboGreen); assay type: physicochemical; details: for Drug loading concentration / Encapsulation rate / Total RNA concentration: LNP formulation of the named lipid
Text: Encapsulation rate is a key quality attribute of liposomes. It refers to the percentage of drug content encapsulated in the lipid bilayer to the total amount of drug added, which can reflect the degree of drug encapsulation in liposomes. The Chinese Pharmacopoeia stipulates that the encapsulation rate should usually not be less than 80%.
The drug loading capacity is the ratio of the amount of drug in the liposome to the total amount of drug and carrier in the liposome. The drug loading capacity directly affects the clinical application dose of the drug, so the larger the drug loading capacity, the more it can meet clinical needs. The drug loading concentration is proportional to the drug loading capacity, and the relative proportion of the drug loading concentration can represent the relative proportion of the drug loading capacity. The relative proportion of the total RNA concentration can represent the relative proportion of the amount of mRNA carried by the LNP formulation.
1×TE buffer, 0.1% Triton X-100 buffer, and RiboGreen reagent (1:200) and mRNA standard stock solution were prepared.
An appropriate amount of sample was taken and added to an appropriate amount of 1×TE buffer, which was diluted to a solution containing about 2.8 μg of the test sample per 1 mL. Then the sample was added to a 96-well plate, where 50 μL of the diluted test sample or mRNA standard stock solution was added to each well, and then added with 1×TE buffer and 0.1% Triton X-100 buffer. The samples were incubated at 37° C. for 10 minutes, and 100 μL of RiboGreen reagent (1:200) was added to each well of the 96-well plate. The plate was centrifuged, and read using an ELISA reader, and the data was processed.

[3] = tested on: 293T cells; assay: Fluorescence detection of Fluc-mRNA (cell transfection efficiency of LNP formulations); assay type: cell-based; details: for Relative light unit (RLU): LNP containing 0.3 μg Fluc-mRNA, 24 hours; for Multiples of values that equivalent to YK-201: RLU of YK-201 / RLU of the named lipid; for Multiples of values that equivalent to YK-202: RLU of YK-202 / RLU of the named lipid; for Multiples of values that equivalent to YK-209: RLU of YK-209 / RLU of the named lipid
Procedure: (§1) Cell recovery and passaging: 293T cells were recovered and cultured in culture dishes to the required cell number.
(§2) Plating: The cells in the culture dish were digested, counted, plated in a 96-well plate at 10,000 cells per well, or in a 12-well plate at 150,000 cells per well, and cultured overnight until the cells adhered to the wall.
(§3) Cell recovery and passage: The method was the same as in Example 3.
(§4) Plating: The method was the same as Example 3.
The LNP formulation containing 0.3 μg Fluc-mRNA (prepared according to Example 4, the LNP formulation carrier components were cationic lipids, neutral lipids, structured lipids and polymer-conjugated lipids at a molar ratio of 49:10:39.5:1.5, and the cationic lipids were cationic lipids listed in Table 1) was added to the cell culture medium of a 96-well plate, and cultured for 24 hours. After that, the corresponding reagents were added according to the instructions of the Gaussia Luciferase Assay Kit, and the fluorescence expression intensity of each well was detected by the IVIS fluorescence detection system. This experiment verified the transfection efficiency of the LNP formulation in the cell, and the specific detection results are shown in Tables 6-9.

[4] = tested on: 293T cells; assay: Cell survival rate assay (CCK-8); assay type: cell-based; details: for Cell survival rate: LNP containing 1.5 μg Fluc-mRNA, 24 hours, CCK-8
Procedure: as §1, §2, §3, §4
The LNP formulations containing 1.5 μg Fluc-mRNA (prepared according to Example 4, the LNP formulation carrier components are cationic lipids, neutral lipids, structured lipids and polymer-conjugated lipids at a molar ratio of 49:10:39.5:1.5, wherein the cationic lipids are the cationic lipids listed in Table 1) and the Lipofectamine 3000 formulation were added to the cell culture medium of the 96-well plate, and the culture was continued for 24 hours. Then, 10 μL of CCK-8 solution was added to each well, and the culture plate was incubated in the incubator for 1 hour, and the absorbance at 450 nm was measured by a microplate reader.

[5] = tested on: female BALB/C mice; assay: Mouse in vivo imaging of Fluc-mRNA LNP formulations; parameters: average radiation intensity (mRNA expression): unit not given here; details: for average radiation intensity (mRNA expression): 10 μg Fluc-mRNA LNP intramuscularly
Procedure: The LNP formulation containing 10 μg Fluc-mRNA (prepared according to Example 4) was injected intramuscularly into female BALB/C mice aged 4 to 6 weeks and weighing 17 to 19 g, and the mice were intraperitoneally injected with fluorescent imaging substrates at specific time points (6 h, 24 h, 48 h and 7 d) after administration. The mice moved freely for 5 minutes, and then the average radiation intensity (corresponding to the fluorescence expression intensity) of the protein expressed by the mRNA carried by the LNP in the mice was detected by IVIS Spectrum small animal in vivo imager. The test results are shown in Tables 14 to 17 and FIGS. 12 to 14.

CCCCCCCCC(CCCCCC)C(=O)OCCCCCCN(CCCCO)CCCCCCOC(=O)C(CCCCCC)CCCCCCCC (centres unmarked) [ALC-0315, reference compound]
PDI [1]: 15.9% | Particle size [1]: 218 nm | Drug loading concentration [2]: 26.05 µg/mL | Encapsulation rate [2]: 62.8% | Total RNA concentration [2]: 37.12 µg/mL | Relative light unit (RLU) [3]: 2147045 RLU | Multiples of values that equivalent to YK-201 [3]: 13.27 | Multiples of values that equivalent to YK-202 [3]: 13.95 | Multiples of values that equivalent to YK-209 [3]: 12.51 | Ratio relative to SM-102 ([3]; RLU of the named lipid / RLU of SM-102, times that of SM-102): 1.29 | Cell survival rate [4]: 49.96% | average radiation intensity (mRNA expression) ([5]; 6 h): 842355 | average radiation intensity (mRNA expression) ([5]; 24 h): 182350 | average radiation intensity (mRNA expression) ([5]; 48 h): 38130 | average radiation intensity (mRNA expression) ([5]; 7 d): 6588

CCCCCCCCCCCOC(=O)CCCCCN(CCCCCCCC(=O)OC(CCCCCCC)CCCCCCC)CCN(C)CCO [YK-206]
PDI [1]: 18.8% | Particle size [1]: 216 nm | drug loading concentration, times that of ALC-0315 [2]: 1.46 times | drug loading concentration, times that of HHMA [2]: 1.24 times | drug loading concentration, times that of SM-102 [2]: 1.50 times | drug loading concentration, times that of YK-009 [2]: 1.42 times | drug loading concentration, times that of compound 21 [2]: 1.69 times | drug loading concentration, times that of compound 23 [2]: 1.84 times | total RNA concentration, times that of ALC-0315 [2]: 1.12 times | total RNA concentration, times that of HHMA [2]: 1.10 times | total RNA concentration, times that of SM-102 [2]: 1.18 times | total RNA concentration, times that of YK-009 [2]: 1.08 times | total RNA concentration, times that of compound 21 [2]: 1.36 times | total RNA concentration, times that of compound 23 [2]: 1.28 times | Drug loading concentration [2]: 38.09 µg/mL | Encapsulation rate [2]: 91.4% | Total RNA concentration [2]: 41.69 µg/mL | encapsulation rate higher than that of ALC-0315 ([2]; difference of rates): 28.60% | encapsulation rate higher than that of HHMA ([2]; difference of rates): 30.90% | encapsulation rate higher than that of SM-102 ([2]; difference of rates): 29.10% | encapsulation rate higher than that of YK-009 ([2]; difference of rates): 28.40% | encapsulation rate higher than that of compound 21 ([2]; difference of rates): 33.60% | encapsulation rate higher than that of compound 23 ([2]; difference of rates): 36.20% | RLU / cell transfection efficiency, times that of ALC-0315 ([3]; Fluc-mRNA LNP): 9 times | RLU / cell transfection efficiency, times that of HHMA ([3]; Fluc-mRNA LNP): 10 times | RLU / cell transfection efficiency, times that of Lipofectamine 3000 ([3]; Fluc-mRNA LNP): 17 times | RLU / cell transfection efficiency, times that of YK-009 ([3]; Fluc-mRNA LNP): 4 times | RLU / cell transfection efficiency, times that of compound 21 ([3]; Fluc-mRNA LNP): 14 times | RLU / cell transfection efficiency, times that of compound 23 ([3]; Fluc-mRNA LNP): 15 times | fluorescence absorption value / cell transfection efficiency, times that of YK-205 ([3]; Fluc-mRNA LNP): 20.29 times | Relative light unit (RLU) [3]: 21058746 RLU | Multiples of values that equivalent to YK-201 [3]: 1.35 | Multiples of values that equivalent to YK-202 [3]: 1.42 | Multiples of values that equivalent to YK-209 [3]: 1.28 | Cell survival rate [4]: 74.57% | cell survival rate higher than that of ALC-0315 ([4]; difference of rates): 24.61% | cell survival rate higher than that of HHMA ([4]; difference of rates): 9.01% | cell survival rate higher than that of Lipofectamine 3000 ([4]; difference of rates): 51.52% | cell survival rate higher than that of SM-102 ([4]; difference of rates): 6.02% | cell survival rate higher than that of compound 21 ([4]; difference of rates): 5.55% | cell survival rate higher than that of compound 23 ([4]; difference of rates): 4.47% | average radiation intensity (mRNA expression) ([5]; 6 h): 2068900 | average radiation intensity (mRNA expression) ([5]; 24 h): 1553050 | average radiation intensity (mRNA expression) ([5]; 48 h): 500150 | average radiation intensity (mRNA expression) ([5]; 7 d): 23015 | mRNA expression level in mice can reach, times that of ALC-0315 ([5]; time point not stated): 13 times | mRNA expression level in mice can reach, times that of HHMA ([5]; time point not stated): 16 times | mRNA expression level in mice can reach, times that of SM-102 ([5]; time point not stated): 16 times | mRNA expression level in mice can reach, times that of compound 21 ([5]; time point not stated): 16 times | mRNA expression level in mice can reach, times that of compound 23 ([5]; time point not stated): 16 times
